# Data: ChEMBL document CHEMBL5233261, “Recent accomplishments on the synthetic/biological facets of pharmacologically active 1H-1,2,3-triazoles” (Eur J Med Chem, 2021)
# Columns and labels:
# Enterococcus faecalis = assay: Antibacterial activity against Enterococcus faecalis ATCC 29212 strain assessed as bacterial growth inhibition incubated for 24 hrs; format: functional
# Plasmodium falciparum [1] = assay: Antimalarial activity against Plasmodium falciparum 3D7 strain by MSF assay; format: functional, organism-based
# HeLa [2] = assay: Anticancer activity against human HeLa cells assessed as cell growth inhibition incubated for 48 hrs by SRB assay; format: functional, cell-based
# MIA PaCa-2 = assay: Anticancer activity against human MIA PaCa-2 cells assessed as cell growth inhibition incubated for 48 hrs by SRB assay; format: functional, cell-based; conditions: MIA PaCa-2, 48 h
# Bacillus cereus = assay: Antibacterial activity against Bacillus cereus ATCC 11778 strain assessed as bacterial growth inhibition; format: functional
# Escherichia coli [3] = assay: Antibacterial activity against Escherichia coli ATCC 853 strain assessed as bacterial growth inhibition; format: functional
# Candida albicans [4] = assay: Antifungal activity against Candida albicans NRRL Y-477 strain assessed as […] growth inhibition; format: functional
# Aspergillus fumigatus = assay: Antifungal activity against Aspergillus fumigatus ATCC 13073 strain assessed as […] growth inhibition; format: functional
# Staphylococcus aureus [5] = assay: Antibacterial activity against Staphylococcus aureus ATCC 6538P strain assessed as bacterial growth inhibition; format: functional
# Proteus vulgaris = assay: Antibacterial activity against Proteus vulgaris ATCC 7829 strain assessed as bacterial growth inhibition; format: functional
# [6] = tested on: Mycobacterium tuberculosis; assay: Antibacterial activity against Mycobacterium tuberculosis H37Rv MTCC 200 strain assessed as bacterial growth inhibition; format: functional
# Pseudomonas aeruginosa = assay: Antibacterial activity against Pseudomonas aeruginosa assessed as bacterial growth inhibition; format: functional
# MCF7 [7] = assay: Anticancer activity against human MCF7 cells assessed as cell growth inhibition incubated for 24 hrs by MTT assay; format: functional, cell-based; conditions: MCF7, 24 h
# MCF7 [8] = assay: Potency index, ratio of Tamoxifen IC50 to test compound IC50 for cytotoxicity against human MCF7 cells by MTT assay; format: functional
# MDA-MB-231 [9] = assay: Potency index, ratio of Tamoxifen IC50 to test compound IC50 for cytotoxicity against human MDA-MB-231 cells by MTT assay; format: functional
# Listeria = assay: Antibacterial activity against Listeria assessed as bacterial growth inhibition by agar well diffusion assay; format: functional
# Escherichia coli [10] = assay: Antibacterial activity against Escherichia coli ATCC 11229 assessed as bacterial growth inhibition by agar well diffusion assay; format: functional
# Staphylococcus aureus [11] = assay: Antibacterial activity against Staphylococcus aureus ATCC 6538 assessed as bacterial growth inhibition by agar well diffusion assay; format: functional
# [12] = tested on: Mycobacterium tuberculosis; assay: Antibacterial activity against Mycobacterium tuberculosis H37Rv strain assessed as bacterial growth inhibition by MABA Assay; format: functional, organism-based
# MCF7 [13] = assay: Anticancer activity against human MCF7 cells assessed as cell growth inhibition incubated for 72 hrs by MTT assay; format: functional, cell-based; conditions: MCF7, 72 h
# HeLa [14] = assay: Anticancer activity against human HeLa cells assessed as cell growth inhibition incubated for 72 hrs by MTT assay; format: functional, cell-based
# Aspergillus niger = assay: Antifungal activity against Aspergillus niger assessed as […] growth inhibition; format: functional
# Escherichia coli [15] = assay: Antibacterial activity against Escherichia coli assessed as bacterial growth inhibition; format: functional
# Candida albicans [16] = assay: Antifungal activity against Candida albicans assessed as […] growth inhibition; format: functional
# Bacillus subtilis [17] = assay: Antibacterial activity against Bacillus subtilis assessed as bacterial growth inhibition; format: functional
# [18] = tested on: Staphylococcus epidermidis; assay: Antibacterial activity against Staphylococcus epidermidis assessed as bacterial growth inhibition; format: functional
# HT-29 = assay: Anticancer activity against human HT-29 cells assessed as cell growth inhibition incubated for 48 hrs by SRB assay; format: functional, cell-based; conditions: HT-29, 48 h
# HCT-116 = assay: Anticancer activity against human HCT-116 cells assessed as cell growth inhibition incubated for 48 hrs by SRB assay; format: functional, cell-based; conditions: HCT-116, 48 h
# MCF7 [19] = assay: Anticancer activity against human MCF7 cells assessed as cell growth inhibition incubated for 48 hrs by SRB assay; format: functional, cell-based; conditions: MCF7, 48 h
# A549 = assay: Anticancer activity against human A549 cells assessed as cell growth inhibition incubated for 48 hrs by SRB assay; format: functional, cell-based; conditions: A549, 48 h
# Staphylococcus aureus [20] = assay: Antibacterial activity against Staphylococcus aureus ATCC 6535 strain assessed as bacterial growth inhibition incubated for 24 hrs; format: functional
# MCF7 [21] = assay: Anticancer activity against human MCF7 cells assessed as cell growth inhibition incubated for 48 hrs by MTT assay; format: functional, cell-based; conditions: MCF7, 48 h
# Plasmodium falciparum [22] = assay: Antimalarial activity against Plasmodium falciparum RKL-2 strain incubated for 40 hrs by Giemsa staining based microscopic analysis; format: functional, organism-based; conditions: RKL-2, 40 h
# Plasmodium falciparum [23] = assay: Antimalarial activity against Plasmodium falciparum 3D7 strain incubated for 40 hrs by Giemsa staining based microscopic analysis; format: functional, organism-based; conditions: 3D7, 40 h
# MDA-MB-231 [24] = assay: Anticancer activity against human MDA-MB-231 cells assessed as cell growth inhibition incubated for 48 hrs by MTT assay; format: functional, cell-based; conditions: MDA-MB-231, 48 h
# Escherichia coli [25] = assay: Antibacterial activity against Escherichia coli assessed as bacterial growth inhibition incubated for 24 hrs by agar well diffusion assay; format: functional
# Bacillus subtilis [26] = assay: Antibacterial activity against Bacillus subtilis assessed as bacterial growth inhibition incubated for 24 hrs by agar well diffusion assay; format: functional
# [27] = tested on: Mycobacterium tuberculosis; assay: Antibacterial activity against Mycobacterium tuberculosis H37Rv strain assessed as bacterial growth inhibition incubated for 7 days by Resazurin Microtiter Assay; format: functional; conditions: 168 h, time 7 day
# Staphylococcus aureus [28] = assay: Antibacterial activity against Staphylococcus aureus assessed as bacterial growth inhibition incubated for 24 hrs by agar well diffusion assay; format: functional
# [29] = tested on: Mycobacterium tuberculosis; assay: Antibacterial activity against Mycobacterium tuberculosis H37Rv ATCC 27294 strain assessed as bacterial growth inhibition by MABA Assay; format: functional
structure (smiles),measurement,setting,value
CCOP(=O)(CCn1cc(Cn2cnc3ccccc3c2=O)nn1)OCC,MIC,Enterococcus faecalis,0.625 µg/mL
O=C(CCl)NCCNc1ccnc2cc(Cl)ccc12,IC50,Plasmodium falciparum [1],38.8 nM
COc1ccc2cccc(-c3cn(CCCOC(=O)C4=C(Cl)c5cc(C)c(C)cc5CCC4)nn3)c2c1,IC50,HeLa [2],1610 nM
same,IC50,MIA PaCa-2,< 10 nM
COc1ccccc1-n1cc(COc2ccc(-c3nc(-c4ccccc4)c(-c4ccccc4)n3Cc3cn(-c4ccccc4OC)nn3)cc2)nn1,MIC,Bacillus cereus,13.8 µM
same,MIC,Escherichia coli [3],13.8 µM
same,MIC,Candida albicans [4],13.8 µM
same,MIC,Aspergillus fumigatus,13.8 µM
same,MIC,Staphylococcus aureus [5],13.8 µM
same,MIC,Proteus vulgaris,13.8 µM
O=C(Cn1cc(-c2ccccc2)nn1)Nc1ccccc1,MIC,[6],0.0898 umol/cm3
NC(=O)N/N=C/c1ccccc1OCc1cn(-c2ccc(Br)cc2)nn1,MIC,"Pseudomonas aeruginosa; Pseudomonas aeruginosa, read-out: MIC",60.2 µM
O=C1C(=O)N(CCCCn2cc(COCCOc3ccc(/C(=C(/CCCl)c4ccccc4)c4ccccc4)cc3)nn2)c2c(Br)cc(Br)cc21,IC50,MCF7 [7],11000 nM
Cc1ncc([N+](=O)[O-])n1Cc1cn(CCCCCN2C(=O)C(=O)c3cc(Cl)ccc32)nn1,Ratio IC50,MCF7 [8],2
same,Ratio IC50,MDA-MB-231 [9],5
CC(C)c1ccc(-c2cc(-c3ccc(Cl)cc3)nc(OCc3cn(CC(=O)O)nn3)c2C#N)cc1,MIC,Listeria,9.6 µg/mL
same,MIC,Escherichia coli [10],9.6 µg/mL
same,MIC,Staphylococcus aureus [11],19.2 µg/mL
O=c1c(Cn2cc(CCCCCCCCCCCCCCCO)nn2)coc2ccccc12,IC50,[12],1.56 µg/mL
Cc1ccc(-n2cc(CSc3nnc(C(C)c4ccc(CC(C)C)cc4)o3)nn2)c(C)c1 (stereo unspecified),IC50,MCF7 [13],31 µg/mL
same,IC50,HeLa [14],27.5 µg/mL
O=C(Cn1cc(-c2cccc(F)c2)nn1)Nc1ccc(F)cc1,MIC,Aspergillus niger,0.0199 umol/cm3
same,MIC,Pseudomonas aeruginosa,0.0199 umol/cm3
same,MIC,Escherichia coli [15],0.0199 umol/cm3
same,MIC,Candida albicans [16],0.0199 umol/cm3
same,MIC,Bacillus subtilis [17],0.0199 umol/cm3
same,MIC,[18],0.0199 umol/cm3
Cc1ccc(-c2nn(-c3ccccc3)cc2/C=C/C(=O)OCc2cn(-c3ccc([N+](=O)[O-])cc3)nn2)cc1,IC50,HT-29,4490 nM
same,IC50,HCT-116,3590 nM
same,IC50,MCF7 [19],1760 nM
same,IC50,A549,1960 nM
CCOP(=O)(CCCn1cc(Cn2cnc3ccccc3c2=O)nn1)OCC,MIC,Staphylococcus aureus [20],0.625 µg/mL
N#CC1=C(N)Oc2cc3c(cc2C12C(=O)N(Cc1cn(Cc4ccc([N+](=O)[O-])cc4)nn1)c1ccccc12)[nH]c1ccccc13 (stereo unspecified),IC50,MCF7 [21],2130 nM
C#CCCO[C@@H]1O[C@@H]2O[C@]3(C)CC[C@H]4[C@H](C)CC[C@@H]([C@H]1C)[C@@]24OO3,IC50,Plasmodium falciparum [22],8 µg/mL
same,IC50,Plasmodium falciparum [23],0.215 µg/mL
CCC(C)n1cc(CN2C(=O)C3(C(C#N)=C(N)Oc4cc5c(cc43)[nH]c3ccccc35)c3ccccc32)nn1 (stereo unspecified),IC50,MDA-MB-231 [24],2130 nM
Cc1cc(=O)oc2cc(OCc3cn(CCCCCCCCn4cc(COc5cc6oc(=O)cc(C)c6cc5Cl)nn4)nn3)c(Cl)cc12,inhibition zone (IZ),Escherichia coli [25],14 mm
same,inhibition zone (IZ),Bacillus subtilis [26],19 mm
same,MIC,[27],1.56 µg/mL
same,inhibition zone (IZ),Staphylococcus aureus [28],16 mm
O=C1C(=O)N(CCn2cc(COCCOc3ccc(/C(=C(/CCCl)c4ccccc4)c4ccccc4)cc3)nn2)c2c(Br)cc(Br)cc21,Ratio IC50,MCF7 [8],30
Cc1cc(=O)oc2cc(OCc3cn(CCCCCCn4cc(COc5cc6oc(=O)cc(C)c6cc5Cl)nn4)nn3)c(Cl)cc12,inhibition zone (IZ),Escherichia coli [25],14 mm
same,inhibition zone (IZ),Bacillus subtilis [26],19 mm
same,MIC,[27],1.56 µg/mL
same,inhibition zone (IZ),Staphylococcus aureus [28],16 mm
COc1ccc2nc(Cl)c(C(=O)NCc3cn(CC(=O)c4ccc(F)cc4)nn3)cc2c1,MIC,[29],1.6 µg/mL
